Patent publication US20070203244A1, “INHIBITORS OF MEMBRANE TYPE-1 MATRIX METALLOPROTEINASE FOR THE TREATMENT OF INSULIN-DEPENDENT DIABETES MELLITUS” (priority 2006, published 2007)

Columns and labels:
[1] = continuous oral dosing, cited from earlier work
MT1-MMP = conditions: cited from earlier work
IS-CD8+ T cells = assay: Homing of DiI-labeled IS-CD8+ T cells into the pancreatic islets of NOD mice; assay type: in vivo; conditions: 24 h
Experimental: Fluorescent Tracing and Morphometric Analysis—For trafficking studies, IS-CD8^+ T cells were incubated at 1×10^7 cells/ml for 30 min at 37° C. in the dark in complete Click's medium containing 5% fetal calf serum and 0.0075 mg/ml of the fluorescent dye 1,1′-didodecyl-3,3,3′,3′-tetramethylindocarbocyanine perchlorate (DiI; Molecular Probes, Eugene, Oreg.). After incubation, the cells were washed three times with phosphatebuffered saline to remove excess DiI. Labeled IS-CD8^+ cells (1×10^7 cells) were injected intravenously in 0.2 ml of phosphate-buffered saline into irradiated (725 rads, 24 h in advance) NOD mice. Mice were sacrificed 24 h after injection of DiI-labeled cells. The spleen and the pancreata were excised and fixed in 0.1 M periodate-lysine-paraformaldehyde phosphate buffer. The organs were next sucrose-saturated, freeze-molded in OCT compound (Sakura Finetek Inc., Torrance, Calif.), and freeze-sectioned. 7-μm-thick cryostat sections of the entire pancreas were prepared at 60-μm intervals using a Leica CM1900 cryotom. Distribution of DiI-labeled CD8^+ cells within the islets was examined using a fluorescent microscope. At least 100 individual islets per mouse (4-5 mice/experimental group) were examined. The characteristic morphology of the islets is easily identified on the cryosections. DiI-labeled cells were counted within the area relevant to each individual islet (see FIG. 3 for a representative image; the islet-relevant area is depicted by the solid white line, and the islet boundaries are shown by the white dotted line). The position of each IS-CD8^+ labeled cell was determined relative to the islet boundary. The labeled cells localized within the islet boundary were considered to be “inside,” whereas the labeled cells adjacent to the islet but outside of the islet boundary were considered to be “at the entrance.” This method has been described in substantial detail (Savinov, A. Y., et al. (2003), and Savinov, A. Y., et al. (2001), which are herein incorporated by reference in their entirety for their teaching of these methods).
Fluorescent tracing and morphometric analysis—For trafficking studies, IS-CD8^+ T cells were incubated at 1×10^7 cells/ml for 30 min at 37° C. in the dark in the complete Click's medium containing 5% FCS and 0.0075 mg/ml of fluorescent dye 1,1′-didodecyl-3,3,3′,3′-tetramethylindocarbocyanine perchlorate (DiI; Molecular Probes). After incubation, the cells were washed three times with PBS to remove excess DiI. Labeled IS-CD8^+ cells (1×10^7 cells) were intravenously injected in 0.2 ml of PBS into irradiated (725 Rad, 24 h in advance) NOD mice. Mice were sacrificed 24 h after injection of DiI-labeled cells. […] In 24 h, the spleen and the pancreata were excised and fixed in 0.1 M periodate-lysine-paraformaldehyde phosphate buffer. The organs were next sucrose-saturated, freeze-molded in OCT compound (Sakura Finetek Inc.) and freeze-sectioned. 7-μm-thick cryostat sections of the entire pancreas were prepared at the 60 μm intervals using a Leica CM1900 cryotom. Distribution of DiI-labeled CD8^+ cells within the islets was examined using a fluorescent microscope. At least 100 individual islets per mouse, 4-5 mice per each experimental group, were examined. The characteristic morphology of the islets is easily identified on the cryosections. DiI-labeled cells were counted within the area relevant to each individual islet. The position of each IS-CD8^+ labeled cell was determined relative to the islet boundary. […]

NOD mice = assay: Adoptively transferred diabetes in NOD mice (IS-CD8+ cells); assay type: in vivo
Experimental: IS-CD8^+ cells were labeled with DiI and then injected in NOD mice. In 24 h, the labeled cells with their intra-islet location were counted in the cryostat sections of the entire pancreas. […] IS-CD8^+ cells were injected in NOD mice. […] PBS containing […] DMSO was used as a vehicle control. The onset of diabetes was monitored daily by measuring urine glucose levels with the Diastix reagent strips. Mice with urine glucose levels of ≧2000 mg/dl for 3 consecutive days were considered diabetic. * and **, p=0.02 and p=0.015 by Fisher's test, respectively.
Mice were monitored for 21 days. […] The onset of diabetes was identified by assessing urine glucose levels with Diastix® strips (Bayer). Mice with urine glucose levels of >2000 mg/dl for 3 consecutive days were considered diabetic. […] The level of glucose in the urine closely follows that in the blood (Traisman, H. S., and Greenwood, R. D. (1973)). The measurement of glucose in urine is a widely accepted method to follow the development of diabetes in NOD mice (Pomerleau, D. P., et al. (2005)).

CC1(C)SCCN(S(=O)(=O)c2ccc(Oc3ccncc3)cc2)[C@H]1C(=O)NO [AG3340]
dose inducing musculoskeletal effects that required dose discontinuation in more than half of the subjects ([1]; 2 to 100 mg/day in two doses per day): above 25 mg/day
severe dose-limiting toxicity ([1]; 2 to 100 mg/day): did not result in severe dose-limiting toxicity
Ki for MT1-MMP (MT1-MMP): sub-nanomolar
IS-CD8+ cells found inside the islets (IS-CD8+ T cells; Example 1: cells co-incubated 2 h with AG3340 50 μM before injection): smaller number of cells
reduction in the T cell homing (IS-CD8+ T cells; Example 2: AG3340 1 mg/kg i.v. 30 min before cells): 50%
homing of IS-CD8+ cells inside the islets (IS-CD8+ T cells; Example 3: inhibitor i.p. before cells, SB-3CT and EGCG at much higher concentrations than AG3340): several-fold less cells
delay of the onset of diabetes compared with the control (NOD mice; Example 1: cells co-incubated with AG3340, 1 mg/kg i.p. on days 0, 2, 4, 6, 8, 10): ~2 fold
delay of the onset of diabetes compared to the control (NOD mice; Example 3: 1 mg/kg i.p. 30 min prior to cells, then every other day): approximately 2 fold
